Experimental data taken from patent US20090286813A1, “Thioxanthine Derivatives and Their Use as Inhibitors of MPO” (ASTRAZENECA AB, priority 2006, published 2009).

Biological target: T1, human MPO (Homo sapiens, UniProt P05164)
T1 sequence (P05164 49-745): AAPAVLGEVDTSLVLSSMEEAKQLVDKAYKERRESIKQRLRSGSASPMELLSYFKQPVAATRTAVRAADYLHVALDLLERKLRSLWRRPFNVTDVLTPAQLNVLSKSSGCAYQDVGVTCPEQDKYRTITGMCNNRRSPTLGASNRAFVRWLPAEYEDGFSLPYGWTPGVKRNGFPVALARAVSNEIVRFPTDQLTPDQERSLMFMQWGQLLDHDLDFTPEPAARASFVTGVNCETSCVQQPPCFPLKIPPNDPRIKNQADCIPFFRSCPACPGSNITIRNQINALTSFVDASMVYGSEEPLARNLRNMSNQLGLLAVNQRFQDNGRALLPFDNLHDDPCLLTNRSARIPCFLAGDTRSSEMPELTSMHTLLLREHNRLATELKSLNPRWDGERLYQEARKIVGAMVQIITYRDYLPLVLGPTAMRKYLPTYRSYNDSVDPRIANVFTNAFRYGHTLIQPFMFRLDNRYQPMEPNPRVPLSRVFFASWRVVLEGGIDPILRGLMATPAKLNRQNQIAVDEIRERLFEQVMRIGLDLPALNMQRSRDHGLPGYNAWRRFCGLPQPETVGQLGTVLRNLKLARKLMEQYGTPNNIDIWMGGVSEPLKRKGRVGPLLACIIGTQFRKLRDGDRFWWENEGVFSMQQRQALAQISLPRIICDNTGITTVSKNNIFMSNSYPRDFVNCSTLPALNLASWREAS
Assay: MPO inhibition screen (TMB oxidation, absorbance)
Assay type: biochemical
Settings: in the presence of tyrosine (final concentration 8 μM); human MPO 2.5 nM
Method: Methods for the determination of MPO inhibitory activity are disclosed in patent application WO 02/090575. The pharmacological activity of compounds according to the invention was tested in the following screen in which the compounds were either tested alone or in the presence of added tyrosine:
Assay buffer: 20 mM sodium/potassium phosphate buffer pH 6.5 containing 10 mM taurine and 100 mM NaCl.
Developing reagent: 2 mM 3,3′,5,5′-tetramethylbenzidine (TMB), 200 μM KI, 200 mM acetate buffer pH 5.4 with 20% DMF.
To 10 μl of diluted compounds in assay buffer, 40 μl of human MPO (final concentration 2.5 nM), with or without 20 μM tyrosine (final concentration, if present, 8 μM), was added and the mixture was incubated for 10 minutes at ambient temperature. Then 50 μl of H2O2 (final concentration 100 μM), or assay buffer alone as a control, were added. After incubation for 10 minutes at ambient temperature, the reaction was stopped by adding 10 μl 0.2 mg/ml of catalase (final concentration 18 μg/ml). The reaction mixture was left for an additional 5 minutes before 100 μl of TMB developing reagent was added. The amount of oxidised 3,3′,5,5′-tetramethylbenzidine formed was then measured after about 5 minutes using absorbance spectroscopy at about […]. IC50 values were then determined using standard procedures.

IC50 [µM] | Structure (SMILES)
2.75 | O=c1[nH]c(=S)n(-c2cccc(OC(F)(F)F)c2)c2nc[nH]c12 [Example 3, 2-thioxo-3-[3-(trifluoromethoxy)phenyl]-1,2,3,7-tetrahydro-6H-purin-6-one]
4.47 | O=c1[nH]c(=S)n(-c2cnc3ccccc3c2)c2nc[nH]c12 [Example 8, 3-quinolin-3-yl-2-thioxo-1,2,3,7-tetrahydro-6H-purin-6-one]
